These results are taken from patent publication US11672843B2, “Somatostatin receptor agonist formulations” (CAMURUS AB, priority 2012, dated 2023).

Where a name gives a salt, the structure may show the parent alone. *1 amine or outer side, *2 acyl side, *3 side chain or, on linkers, in order; H or OH if unused. Where a SMILES comes first, the peptide text is derived from it. Side-chain parts run from the residue outwards. [ ]: non-standard residue; d: D form. The star is where a group is joined. Ethylenediamine = C(CN[*:2])N[*:1]; Hyp = O=C(O)[C@@H]1C[C@@H](O)CN1; Phg = N[C@H](C(=O)O)c1ccccc1; CO = O=C([*:1])[*:2]; Bn = c1ccc(C*)cc1

For data set [1] the following is noted: in vivo; cited from earlier work.
The test system of another data set is SSTR2 and SSTR5. To be noted: cited from earlier work.
Data set [2] in a line: Solubility screening of SOM230 in lipid formulations (visual inspection). It counts as physicochemical. On the procedure:
Placebo lipid mixture formulations as well as formulations of the single respective lipid alone were prepared in 1 OR vials according to Table 1. The sample size was 6 g. […] The samples were allowed to equilibrate at ambient room temperature; samples with formulation types 1-8 on end-over-end rotation and samples with formulation types 9-12 on magnetic stirring. The flow chart in FIG. 1 describes the sample preparation process. The screening covered the following formulation variables: • Lipid weight ratio (SPC/GDO weight ratio) • Co-solvent nature and concentration • Single lipid formulations • Single solvent (only PG) The samples were studied by visual inspection and the appearance was noted. […] Mixing at ambient room temperature and visual observation continued after addition of more SOM230 drug powder.

The conditions of data set [3]: cited from earlier work.
Data set [4] is described as follows: Stability comparison of SOM230 salt forms in lipid formulations, HPLC. It counts as physicochemical. As to conditions: storage for 2 weeks at 60° C.; ca 30 mg/mL free base. The procedure: The lipid/SOM230(Pm), lipid/SOM230(Cl) and lipid/SOM230(Ac) formulations were divided into two 2R vials which were placed at 60° C. and the remaining amount from the preparation was assayed by HPLC (time point zero).
The samples stored at 60° C. were pulled out after 2 weeks of storage for visual inspection and HPLC analysis.

Turning to `C[C@@H](O)[C@@H]1NC(=O)[C@H](CCCCN)NC(=O)[C@@H](Cc2c[nH]c3ccccc23)NC(=O)[C@H](Cc2ccccc2)NC(=O)[C@@H](NC(=O)[C@H](N)Cc2ccccc2)CSSC[C@@H](C(=O)N[C@H](CO)[C@@H](C)O)NC1=O` [Octreotide, D-Phe-Cys-Phe-D-Trp-Lys-Thr-Cys-Thr-ol (2-7 disulphide bridge)], the Terminal half-life result in data set [1] is “around 1.7 hours”. For the same compound, in the data set with SSTR2 and SSTR5, the “Selectivity for somatostatin receptors” value was “high selectivity”.
Regarding `NCCCC[C@@H]1NC(=O)[C@@H](Cc2c[nH]c3ccccc23)NC(=O)[C@H](c2ccccc2)NC(=O)[C@@H]2C[C@@H](OC(=O)NCCN)CN2C(=O)[C@H](Cc2ccccc2)NC(=O)[C@H](Cc2ccc(OCc3ccccc3)cc2)NC1=O` [Pasireotide] (cyclo([Hyp]([CO-Ethylenediamine])[Phg][dW]KY(Bn)F); ring closure inferred), in data set [2] (ethanol), the “Solubility of SOM230 in EtOH” value is less than 1 wt %. Further, in data set [2] (propylene glycol only), the “Solubility of SOM230 in PG” value is greater than 1 wt %. The Half-life in data set [3] (biological half-life) was 2 to 3 h. Also, in data set [3] (human, single subcutaneous dose), the “Initial half-life following the peak” value was 2 to 3 h.
Consider `NCCCC[C@@H]1NC(=O)[C@@H](Cc2c[nH]c3ccccc23)NC(=O)[C@H](c2ccccc2)NC(=O)[C@@H]2C[C@@H](OC(=O)NCCN)CN2C(=O)[C@H](Cc2ccccc2)NC(=O)[C@H](Cc2ccc(OCc3ccccc3)cc2)NC1=O` [SOM230 hydrochloride] (cyclo([Hyp]([CO-Ethylenediamine])[Phg][dW]KY(Bn)F)), for which the “Stability of salt form in the lipid formulations (HPLC)” value in data set [4] is “more stable than the acetate salt but not as stable as the pamoate salt”.
Turning to Pasireotide pamoate [SOM230 pamoate], the “Stability of salt form in the lipid formulations (HPLC)” value in data set [4] is on record as “most stable salt form”.
